Experimental data taken from ChEMBL document CHEMBL3822432, “Antibacterial and anticancer activity of a series of novel peptides incorporating cyclic tetra-substituted C(α) amino acids” (Bioorg Med Chem, 2016).
In brackets after ≈: the same amount, converted by molar mass. Non-standard residues stand in square brackets, D forms with d. Residues, ends and D or L forms follow the SMILES beside them. ξ: configuration not given here. Ac6c = NC1(C(=O)O)CCCCC1; Ac5c = NC1(C(=O)O)CCCC1; ξOrn = NCCCC(N)C(=O)O; ξDab = NCCC(N)C(=O)O

Legend:
[1] = tested on: Acinetobacter baumannii; assay: Antibacterial activity against Acinetobacter baumannii B5W71 ATCC 15149 by two fold serial dilution method; format: functional
[2] = tested on: Neisseria gonorrhoeae; assay: Antibacterial activity against Neisseria gonorrhoeae F-18 ATCC 49226 by two fold serial dilution method; format: functional
[3] = tested on: RL; assay: Antiproliferative activity against human RL cells after 72 hrs by Celltiter-Glo luminescent cell viability assay; format: functional, cell-based
[4] = tested on: Enterococcus faecalis; assay: Antibacterial activity against Enterococcus faecalis Portland ATCC 29212 by two fold serial dilution method; format: functional; conditions: ATCC 29212 Portland
[5] = tested on: Burkholderia pseudomallei; assay: Antibacterial activity against Burkholderia pseudomallei AHS 1 NCTC 8016 by two fold serial dilution method; format: functional
[6] = Antiproliferative activity against human UACC62 cells after 72 hrs by Celltiter-Glo luminescent cell viability assay; format: functional, cell-based; conditions: UACC-62, 72 h
[7] = tested on: MCF7; assay: Antiproliferative activity against human MCF7 cells after 72 hrs by Celltiter-Glo luminescent cell viability assay; format: functional, cell-based; conditions: MCF7, 72 h
[8] = Antiproliferative activity against human MIAPaCa2 cells after 72 hrs by Celltiter-Glo luminescent cell viability assay; format: functional, cell-based; conditions: MIA PaCa-2, 72 h
[9] = tested on: NCI-H69; assay: Antiproliferative activity against human NCI-H69 cells after 72 hrs by Celltiter-Glo luminescent cell viability assay; format: functional, cell-based; conditions: NCI-H69, 72 h
[10] = tested on: Streptococcus pneumoniae; assay: Antibacterial activity against Streptococcus pneumoniae 262 ATCC 49619 by two fold serial dilution method; format: functional
[11] = Antibacterial activity against Francisella tularensis SCHU S4 NR-643 by two fold serial dilution method; format: functional
[12] = Antiproliferative activity against human IGROV1 cells after 72 hrs by Celltiter-Glo luminescent cell viability assay; format: functional, cell-based; conditions: IGROV-1, 72 h
[13] = Antibacterial activity against Bacillus anthracis Ames NR-3838 by two fold serial dilution method; format: functional, Bacillus anthracis str. Ames
[14] = Antibacterial activity against Salmonella enterica LT2 Typhimurium ATCC 15277 by two fold serial dilution method; format: functional
[15] = tested on: Klebsiella aerogenes; assay: Antibacterial activity against carbapenem-resistant Enterobacter aerogenes NCDC819-56 ATCC 13048 by two fold serial dilution method; format: functional
[16] = tested on: Staphylococcus aureus; assay: Antibacterial activity against Staphylococcus aureus Seattle 1945 ATCC 25923 by two fold serial dilution method; format: functional
[17] = Antiproliferative activity against human DLD1 cells after 72 hrs by Celltiter-Glo luminescent cell viability assay; format: functional, cell-based; conditions: DLD-1, 72 h
[18] = tested on: CFPAC-1; assay: Antiproliferative activity against human CFPAC-1 cells after 72 hrs by Celltiter-Glo luminescent cell viability assay; format: functional, cell-based; conditions: CFPAC-1, 72 h
[19] = tested on: Staphylococcus aureus; assay: Antibacterial activity against methicillin-resistant Staphylococcus aureus USA 300 NRS 384 by two fold serial dilution method; format: functional
[20] = tested on: A498; assay: Antiproliferative activity against human A498 cells after 72 hrs by Celltiter-Glo luminescent cell viability assay; format: functional, cell-based; conditions: A498, 72 h
[21] = Antibacterial activity against carbapenem-resistant Klebsiella pneumoniae K6 ATCC 700603 by two fold serial dilution method; format: functional, Klebsiella pneumoniae 700603
[22] = Antibacterial activity against Yersinia pestis CO92 NR641 by two fold serial dilution method; format: functional
[23] = tested on: Pseudomonas aeruginosa; assay: Antibacterial activity against Pseudomonas aeruginosa Boston 41501 ATCC 27853 by two fold serial dilution method; format: functional
[24] = tested on: A549; assay: Antiproliferative activity against human A549 cells after 72 hrs by Celltiter-Glo luminescent cell viability assay; format: functional, cell-based; conditions: A549, 72 h
[25] = Antiproliferative activity against human PC3 cells after 72 hrs by Celltiter-Glo luminescent cell viability assay; format: functional, cell-based; conditions: PC-3, 72 h
[26] = tested on: Mycobacterium tuberculosis; assay: Antibacterial activity against Mycobacterium tuberculosis H37Ra ATCC 2517 by two fold serial dilution method; format: functional
[27] = Antibacterial activity against Clostridium difficile VIP 10463 ATCC 43255 by two fold serial dilution method; format: functional, Clostridium difficile ATCC 43255; conditions: Clostridioides difficile
[28] = Antiproliferative activity against human COLO205 cells after 72 hrs by Celltiter-Glo luminescent cell viability assay; format: functional, cell-based; conditions: COLO 205, 72 h

Row | Structure (SMILES) | MIC [1] [µM] | MIC [2] [µM] | IC50 [3] [µM] | MIC [4] [µM] | MIC [5] [µM] | IC50 [6] [µM] | IC50 [7] [µM] | IC50 [8] [µM] | IC50 [9] [µM] | MIC [10] [µM] | MIC [11] [µM] | IC50 [12] [µM] | MIC [13] [µM] | MIC [14] [µM] | MIC [15] [µM] | MIC [16] [µM] | IC50 [17] [µM] | IC50 [18] [µM] | MIC [19] [µM] | IC50 [20] [µM] | further results
1 | CC(=O)NCC(=O)N[C@@H](Cc1ccccc1)C(=O)NC1(C(=O)NCC(=O)NC2(C(=O)N[C@@H](CCCCN)C(=O)NC3(C(=O)NCC(=O)NC4(C(=O)N[C@@H](Cc5ccccc5)C(=O)NC5(C(=O)NCC(=O)NC6(C(=O)NCC(=O)N[C@@H](CCCCN)C(=O)NC7(C(=O)N[C@@H](CCCCN)C(=O)N[C@@H](CCCCN)C(=O)N[C@@H](CCCCN)C(=O)N[C@@H](CCCCN)C(N)=O)CCCC7)CCCC6)CCCC5)CCCC4)CCCC3)CCCC2)CCCC1 (Ac-GF[Ac5c]G[Ac5c]K[Ac5c]G[Ac5c]F[Ac5c]G[Ac5c]GK[Ac5c]KKKK-NH2) | 2.86 (≈ 6.25 µg/mL) | 22.9 (≈ 50 µg/mL) | > 7.5 | > 46 | > 46 | > 7.5 | > 7.5 | > 7.5 | > 7.5 | > 46 | 22.9 (≈ 50 µg/mL) | > 7.5 | > 46 | 5.71 (≈ 12.5 µg/mL) | > 46 | > 46 | > 7.5 | > 7.5 | > 46 | > 7.5 | MIC [21]: > 46 µM; MIC [22]: > 46 µM; MIC [23]: 22.9 µM (≈ 49.9 µg/mL); IC50 [24]: > 7.5 µM; IC50 [25]: > 7.5 µM; MIC [26]: 11.4 µM (≈ 25 µg/mL); MIC [27]: 1.43 µM (≈ 3.13 µg/mL); IC50 [28]: > 7.5 µM
2 | CC(=O)NCC(=O)N[C@@H](Cc1ccccc1)C(=O)NC1(C(=O)NCC(=O)NC2(C(=O)NC(CCN)C(=O)NC3(C(=O)NCC(=O)NC4(C(=O)N[C@@H](Cc5ccccc5)C(=O)NC5(C(=O)NCC(=O)NC6(C(=O)NCC(=O)NC(CCN)C(=O)NC7(C(=O)NC(CCN)C(=O)NC(CCN)C(=O)NC(CCN)C(=O)NC(CCN)C(N)=O)CCCCC7)CCCCC6)CCCCC5)CCCCC4)CCCCC3)CCCCC2)CCCCC1 (some centres undefined) (Ac-GF[Ac6c]G[Ac6c][ξDab][Ac6c]G[Ac6c]F[Ac6c]G[Ac6c]G[ξDab][Ac6c][ξDab][ξDab][ξDab][ξDab]-NH2) | 1.48 (≈ 3.13 µg/mL) | 1.48 (≈ 3.13 µg/mL) | 1.7 | 2.96 (≈ 6.26 µg/mL) | > 47 | 1.9 | 3 | 4.4 | 1.5 | 47.3 (≈ 100 µg/mL) | 23.6 (≈ 50 µg/mL) | 2.3 | 2.96 (≈ 6.26 µg/mL) | 1.48 (≈ 3.13 µg/mL) | 2.97 (≈ 6.28 µg/mL) | 2.96 (≈ 6.26 µg/mL) | 2.6 | 2.7 | 5.91 (≈ 12.5 µg/mL) | 2.1 | MIC [21]: 2.96 µM (≈ 6.26 µg/mL); MIC [22]: > 47 µM; MIC [23]: 1.48 µM (≈ 3.13 µg/mL); IC50 [24]: 2.4 µM; IC50 [25]: 6.5 µM; MIC [26]: 11.8 µM (≈ 25 µg/mL); MIC [27]: 2.96 µM (≈ 6.26 µg/mL); IC50 [28]: 6.4 µM
3 | CC(=O)NCC(=O)N[C@@H](Cc1ccccc1)C(=O)NC1(C(=O)NCC(=O)NC2(C(=O)NC(CCCN)C(=O)NC3(C(=O)NCC(=O)NC4(C(=O)N[C@@H](Cc5ccccc5)C(=O)NC5(C(=O)NCC(=O)NC6(C(=O)NCC(=O)NC(CCCN)C(=O)NC7(C(=O)NC(CCCN)C(=O)NC(CCCN)C(=O)NC(CCCN)C(=O)NC(CCCN)C(N)=O)CCCCC7)CCCCC6)CCCCC5)CCCCC4)CCCCC3)CCCCC2)CCCCC1 (some centres undefined) (Ac-GF[Ac6c]G[Ac6c][ξOrn][Ac6c]G[Ac6c]F[Ac6c]G[Ac6c]G[ξOrn][Ac6c][ξOrn][ξOrn][ξOrn][ξOrn]-NH2) | 2.84 (≈ 6.25 µg/mL) | 2.84 (≈ 6.25 µg/mL) | 2.5 | 11.4 (≈ 25 µg/mL) | > 45 | 3.1 | 4.6 | 3.6 | 1.7 | 45.5 (≈ 100 µg/mL) | 45.5 (≈ 100 µg/mL) | 5.4 | 2.84 (≈ 6.25 µg/mL) | 2.84 (≈ 6.25 µg/mL) | 22.8 (≈ 50 µg/mL) | 5.67 (≈ 12.5 µg/mL) | 6.2 | 5.9 | 22.8 (≈ 50 µg/mL) | 4.7 | MIC [21]: 22.8 µM (≈ 50 µg/mL); MIC [22]: > 45 µM; MIC [23]: 1.42 µM (≈ 3.12 µg/mL); IC50 [24]: 6.5 µM; IC50 [25]: 7.5 µM; MIC [26]: 11.4 µM (≈ 25 µg/mL); MIC [27]: 5.67 µM (≈ 12.5 µg/mL); IC50 [28]: 3.2 µM
